Literature values as cited in article PMC9186412, “Rational Framework for the Design of Trp- and Arg-Rich Peptide Antibiotics Against Multidrug-Resistant Bacteria” (Frontiers in Microbiology, 2022).
Where two headings read alike, the source gives them in different places.

Key:
CDC AR isolates [1] = system: CDC AR isolates; design: key: S (green), susceptible; I (blue), intermediate; R (red), resistant; settings: data provided by the CDC, ref CDC, cited from earlier work
CDC AR isolates [2] = system: CDC AR isolates; design: key: S (green), susceptible; I (blue), intermediate; R (red), resistant; settings: data provided by the CDC, ref CDC, cited from earlier work; remark: listed apart in the source
From the text: Supplement Table_3.XLSX, sheet "CDC AR isolates profiles" | column: G(-) strains

[3] = Enterococcus faecium EF673, CDC AR isolate
[4] = Acinetobacter baumannii AB273, CDC AR isolate
[5] = Acinetobacter baumannii AB274, CDC AR isolate
[6] = Acinetobacter baumannii AB275, CDC AR isolate
[7] = Acinetobacter baumannii AB276, CDC AR isolate
[8] = Enterobacter cloacae E62, CDC AR isolate
[9] = Enterobacter cloacae E544, CDC AR isolate
[10] = Enterobacter cloacae E545, CDC AR isolate
[11] = Enterobacter cloacae E546, CDC AR isolate
[12] = Enterococcus faecium EF500, CDC AR isolate
[13] = Enterococcus faecium EF671, CDC AR isolate
[14] = Enterococcus faecium EF672, CDC AR isolate
[15] = Escherichia coli EC541, CDC AR isolate
[16] = Escherichia coli EC543, CDC AR isolate
[17] = Escherichia coli EC544, CDC AR isolate
[18] = Escherichia coli EC549, CDC AR isolate
[19] = Klebsiella pneumoniae KP542, CDC AR isolate
[20] = Klebsiella pneumoniae KP548, CDC AR isolate
[21] = Klebsiella pneumoniae KP550, CDC AR isolate
[22] = Klebsiella pneumoniae KP552, CDC AR isolate
[23] = Staphylococcus aureus SA461, CDC AR isolate
[24] = Staphylococcus aureus SA462, CDC AR isolate
[25] = Staphylococcus aureus SA463, CDC AR isolate
[26] = Staphylococcus aureus SA561, CDC AR isolate
[27] = Pseudomonas aeruginosa PA229, CDC AR isolate
[28] = Pseudomonas aeruginosa PA230, CDC AR isolate
[29] = Pseudomonas aeruginosa PA231, CDC AR isolate
[30] = Pseudomonas aeruginosa PA232, CDC AR isolate
[31] = Pseudomonas aeruginosa PA239, CDC AR isolate

| SMILES | Antibiotic susceptibility profile (CDC AR isolates [1]; [3]) | Antibiotic susceptibility profile (CDC AR isolates [2]; [8]) | Antibiotic susceptibility profile (CDC AR isolates [2]; [9]) | Antibiotic susceptibility profile (CDC AR isolates [2]; [10]) | Antibiotic susceptibility profile (CDC AR isolates [2]; [11]) | Antibiotic susceptibility profile (CDC AR isolates [2]; [12]) | Antibiotic susceptibility profile (CDC AR isolates [2]; [13]) | Antibiotic susceptibility profile (CDC AR isolates [2]; [14]) | Antibiotic susceptibility profile (CDC AR isolates [2]; [15]) | Antibiotic susceptibility profile (CDC AR isolates [2]; [16]) | Antibiotic susceptibility profile (CDC AR isolates [2]; [17]) | Antibiotic susceptibility profile (CDC AR isolates [2]; [18]) | Antibiotic susceptibility profile (CDC AR isolates [2]; [19]) | Antibiotic susceptibility profile (CDC AR isolates [2]; [20]) | Antibiotic susceptibility profile (CDC AR isolates [2]; [21]) | Antibiotic susceptibility profile (CDC AR isolates [2]; [22]) | Antibiotic susceptibility profile (CDC AR isolates [1]; [23]) | Antibiotic susceptibility profile (CDC AR isolates [2]; [24]) | Antibiotic susceptibility profile (CDC AR isolates [2]; [25]) | Antibiotic susceptibility profile (CDC AR isolates [2]; [26]) | further results |
| --- | --- | --- | --- | --- | --- | --- | --- | --- | --- | --- | --- | --- | --- | --- | --- | --- | --- | --- | --- | --- | --- |
| CC1(C)S[C@@H]2[C@H](NC(=O)[C@H](N)c3ccccc3)C(=O)N2[C@H]1C(=O)O [Ampicillin] | S | R | R | R | R | R | S | S | R | R | R | R | R | R | R | R | – | – | – | – | Antibiotic susceptibility profile (CDC AR isolates [2]; [4]): R; Antibiotic susceptibility profile (CDC AR isolates [2]; [5]): R; Antibiotic susceptibility profile (CDC AR isolates [2]; [6]): R; Antibiotic susceptibility profile (CDC AR isolates [2]; [7]): R |
| CO[C@@]1(NC(=O)Cc2cccs2)C(=O)N2C(C(=O)O)=C(COC(N)=O)CS[C@@H]21 [Cefoxitin] | – | R | R | R | R | – | – | – | S | R | R | R | R | R | R | R | R | R | R | R | – |
| CCO/N=C(\C(=O)N[C@@H]1C(=O)N2C(C(=O)[O-])=C(Sc3nc(-c4cc[n+](C)cc4)cs3)CS[C@H]12)c1nsc(N)n1 [Ceftaroline] | – | – | – | – | – | – | – | – | R | R | R | R | – | – | – | – | S | S | S | S | – |
| O=C(N[C@H](CO)[C@H](O)c1ccc([N+](=O)[O-])cc1)C(Cl)Cl [Chloramphenicol] | S | – | – | – | – | I | R | I | – | – | – | – | – | – | – | – | – | – | – | – | – |
| CCC[C@@H]1C[C@@H](C(=O)N[C@@H]([C@H]2O[C@H](SC)[C@H](O)[C@@H](O)[C@H]2O)[C@H](C)Cl)N(C)C1 [Clindamycin] | – | – | – | – | – | – | – | – | – | – | – | – | – | – | – | – | R | S | S | S | – |
| CCCCCCCCCC(=O)N[C@@H](Cc1c[nH]c2ccccc12)C(=O)N[C@H](CC(N)=O)C(=O)N[C@@H](CC(=O)O)C(=O)N[C@@H]1C(=O)NCC(=O)N[C@@H](CCCN)C(=O)N[C@@H](CC(=O)O)C(=O)N[C@H](C)C(=O)N[C@@H](CC(=O)O)C(=O)NCC(=O)N[C@H](CO)C(=O)N[C@@H]([C@H](C)CC(=O)O)C(=O)N[C@@H](CC(=O)c2ccccc2N)C(=O)O[C@@H]1C [Daptomycin] | S | – | – | – | – | S | S | S | – | – | – | – | – | – | – | – | S | – | S | – | – |
| Nc1nc(-n2cc(C(=O)O)c(=O)c3cc(F)c(N4CC(O)C4)c(Cl)c32)c(F)cc1F [Delafloxacin] | S | – | – | – | – | – | S | S | – | – | – | – | – | – | – | – | – | – | – | – | – |
| C[C@H]1c2cccc(O)c2C(=O)C2=C(O)[C@]3(O)C(=O)C(C(N)=O)=C(O)[C@@H](N(C)C)[C@@H]3[C@@H](O)[C@@H]21 [Doxycycline] | S | – | – | – | – | I | S | I | – | – | – | – | – | – | – | – | S | S | S | I | – |
| CC[C@H]1OC(=O)[C@H](C)[C@@H](O[C@H]2C[C@@](C)(OC)[C@@H](O)[C@H](C)O2)[C@H](C)[C@@H](O[C@@H]2O[C@H](C)C[C@H](N(C)C)[C@H]2O)[C@](C)(O)C[C@@H](C)C(=O)[C@H](C)[C@@H](O)[C@]1(C)O [Erythromycin] | – | – | – | – | – | – | – | – | – | – | – | – | – | – | – | – | R | S | S | I | – |
| CNC(C)C1CCC(N)C(OC2C(N)CC(N)C(OC3OCC(C)(O)C(NC)C3O)C2O)O1 (stereo not drawn) [Gentamicin] | – | S | R | R | S | – | – | – | S | R | R | S | R | S | R | S | S | S | S | S | Antibiotic susceptibility profile (CDC AR isolates [2]; [4]): R; Antibiotic susceptibility profile (CDC AR isolates [2]; [5]): R; Antibiotic susceptibility profile (CDC AR isolates [2]; [6]): R; Antibiotic susceptibility profile (CDC AR isolates [2]; [7]): R; Antibiotic susceptibility profile (CDC AR isolates [2]; [27]): S; Antibiotic susceptibility profile (CDC AR isolates [2]; [28]): R; Antibiotic susceptibility profile (CDC AR isolates [2]; [29]): R; Antibiotic susceptibility profile (CDC AR isolates [2]; [30]): R; Antibiotic susceptibility profile (CDC AR isolates [2]; [31]): R |
| C[C@H]1COc2c(N3CCN(C)CC3)c(F)cc3c(=O)c(C(=O)O)cn1c23 [Levofloxacin] | S | R | R | S | R | R | S | S | R | R | R | R | R | R | R | R | R | R | S | R | Antibiotic susceptibility profile (CDC AR isolates [2]; [4]): R; Antibiotic susceptibility profile (CDC AR isolates [2]; [5]): R; Antibiotic susceptibility profile (CDC AR isolates [2]; [6]): R; Antibiotic susceptibility profile (CDC AR isolates [2]; [7]): R; Antibiotic susceptibility profile (CDC AR isolates [2]; [27]): R; Antibiotic susceptibility profile (CDC AR isolates [2]; [28]): R; Antibiotic susceptibility profile (CDC AR isolates [2]; [29]): R; Antibiotic susceptibility profile (CDC AR isolates [2]; [30]): R; Antibiotic susceptibility profile (CDC AR isolates [2]; [31]): R |
| CC(=O)NC[C@H]1CN(c2ccc(N3CCOCC3)c(F)c2)C(=O)O1 [Linezolid] | S | – | – | – | – | S | S | S | – | – | – | – | – | – | – | – | S | S | S | S | – |
| CN(C)c1cc(NC(=O)CNC(C)(C)C)c(O)c2c1C[C@H]1C[C@H]3[C@H](N(C)C)C(O)=C(C(N)=O)C(=O)[C@@]3(O)C(O)=C1C2=O [Tigecycline] | – | S | R | R | S | – | – | – | S | S | S | S | S | I | S | S | – | – | – | – | – |
